From patent US11912682B2, “Isoindolinone compounds” (Monte Rosa Therapeutics, Inc., priority 2021, dated 2024) come the findings set out here.

The term DC50 denotes the concentration at which degradation of the target reaches its halfway point. A word on the IC50: it is the concentration at which inhibition is half-maximal.

Chain of Full length wild-type cereblon CRBN (Q96SW2 whole entry): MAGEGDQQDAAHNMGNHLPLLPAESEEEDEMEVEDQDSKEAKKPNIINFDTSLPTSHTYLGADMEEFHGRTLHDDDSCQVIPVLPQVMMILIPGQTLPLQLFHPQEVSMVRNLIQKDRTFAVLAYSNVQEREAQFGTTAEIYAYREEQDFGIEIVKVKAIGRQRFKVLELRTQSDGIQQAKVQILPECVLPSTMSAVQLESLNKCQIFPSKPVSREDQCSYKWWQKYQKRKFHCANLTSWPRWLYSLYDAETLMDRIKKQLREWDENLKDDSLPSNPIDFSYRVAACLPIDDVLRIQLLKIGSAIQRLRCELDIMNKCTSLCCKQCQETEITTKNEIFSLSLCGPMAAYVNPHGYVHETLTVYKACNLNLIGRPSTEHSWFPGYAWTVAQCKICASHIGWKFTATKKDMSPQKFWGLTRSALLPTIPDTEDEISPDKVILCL

For one assay, the target named is GSPT1 (Homo sapiens (Human), UniProt P15170+Q96SW2). Nature of the assay: immunofluorescence assay for GSPT1 degradation in CAL-51 cells (Example 4). It counts as cell-based. As to conditions: 6 hours, read-out: Activity for GSPT1 degradation, Code (DC50). As for the experimental part: The representative compounds were tested in an immunofluorescence assay for their activity to bind to degrade GSPT1. CAL-51 cells were purchased from DSMZ (cat. Number ACC302), sub-cultured in 90% Dulbecco's MEM (4.5 g/L glucose, Gibco 11965) +10% heat inactivated FBS (BioConcept, 2-01F136I) and incubated at 37° C., 5% CO2. For the assay, imaging microtiterplate Cell Carrier 96 Ultra (Perkin Elmer 6055302) were pre-coated with Fibronectin (Sigma F085, 30 μl at 0.2 μg/ml) in PBS (100 μl, Gibco 14190) for 45 min at room temperature, rinsed with PBS and CAL-51 cells (30 K cells/well) were plated and let to adhere overnight. Cells were treated with compounds typically using a serial dilution ranging from 30 μM to 0.1 nM for 6 hours. Compounds were stored at 10 mM DMSO stocks. Vehicle (DMSO), positive (CC-885, 10 μM) and rescue controls (positive control plus 0.2 μM bortezomib) were also included atthis stage. Cells were subsequently rinsed with PBS and fixed in 10% Formalin solution (50 μl, Sigma HT5011)) for 20 mins at room temperature. Following three consecutive PBS washes (100 μl), cells were permeabilized in 0.1% Triton X-100 in PBS (Sigma 93443, 50 μl) for 15 mins at room temperature. Following three further PBS washes, 50 μl blocking buffer (1% BSA, Sigma A4503, in PBS) was added for 45 min for signal-to-noise reduction.
Chain of GSPT1 (P15170 whole entry): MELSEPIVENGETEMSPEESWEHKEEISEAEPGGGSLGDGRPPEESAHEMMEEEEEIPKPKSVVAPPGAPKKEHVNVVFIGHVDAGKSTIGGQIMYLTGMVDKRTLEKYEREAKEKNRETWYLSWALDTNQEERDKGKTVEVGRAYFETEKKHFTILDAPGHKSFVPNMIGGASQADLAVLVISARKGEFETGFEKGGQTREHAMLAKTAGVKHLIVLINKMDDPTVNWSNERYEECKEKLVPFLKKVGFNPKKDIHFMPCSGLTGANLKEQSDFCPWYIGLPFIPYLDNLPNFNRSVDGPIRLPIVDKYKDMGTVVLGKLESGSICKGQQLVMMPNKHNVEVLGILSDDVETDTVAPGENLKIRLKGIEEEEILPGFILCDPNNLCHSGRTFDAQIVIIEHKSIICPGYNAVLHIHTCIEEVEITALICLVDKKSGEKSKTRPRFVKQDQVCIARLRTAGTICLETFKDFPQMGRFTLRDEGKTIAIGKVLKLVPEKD
Chain of GSPT1 (Q96SW2 whole entry): as the sequence (Q96SW2 whole entry) above
Chain of GSPT1 (Q16531 2-1140 partner): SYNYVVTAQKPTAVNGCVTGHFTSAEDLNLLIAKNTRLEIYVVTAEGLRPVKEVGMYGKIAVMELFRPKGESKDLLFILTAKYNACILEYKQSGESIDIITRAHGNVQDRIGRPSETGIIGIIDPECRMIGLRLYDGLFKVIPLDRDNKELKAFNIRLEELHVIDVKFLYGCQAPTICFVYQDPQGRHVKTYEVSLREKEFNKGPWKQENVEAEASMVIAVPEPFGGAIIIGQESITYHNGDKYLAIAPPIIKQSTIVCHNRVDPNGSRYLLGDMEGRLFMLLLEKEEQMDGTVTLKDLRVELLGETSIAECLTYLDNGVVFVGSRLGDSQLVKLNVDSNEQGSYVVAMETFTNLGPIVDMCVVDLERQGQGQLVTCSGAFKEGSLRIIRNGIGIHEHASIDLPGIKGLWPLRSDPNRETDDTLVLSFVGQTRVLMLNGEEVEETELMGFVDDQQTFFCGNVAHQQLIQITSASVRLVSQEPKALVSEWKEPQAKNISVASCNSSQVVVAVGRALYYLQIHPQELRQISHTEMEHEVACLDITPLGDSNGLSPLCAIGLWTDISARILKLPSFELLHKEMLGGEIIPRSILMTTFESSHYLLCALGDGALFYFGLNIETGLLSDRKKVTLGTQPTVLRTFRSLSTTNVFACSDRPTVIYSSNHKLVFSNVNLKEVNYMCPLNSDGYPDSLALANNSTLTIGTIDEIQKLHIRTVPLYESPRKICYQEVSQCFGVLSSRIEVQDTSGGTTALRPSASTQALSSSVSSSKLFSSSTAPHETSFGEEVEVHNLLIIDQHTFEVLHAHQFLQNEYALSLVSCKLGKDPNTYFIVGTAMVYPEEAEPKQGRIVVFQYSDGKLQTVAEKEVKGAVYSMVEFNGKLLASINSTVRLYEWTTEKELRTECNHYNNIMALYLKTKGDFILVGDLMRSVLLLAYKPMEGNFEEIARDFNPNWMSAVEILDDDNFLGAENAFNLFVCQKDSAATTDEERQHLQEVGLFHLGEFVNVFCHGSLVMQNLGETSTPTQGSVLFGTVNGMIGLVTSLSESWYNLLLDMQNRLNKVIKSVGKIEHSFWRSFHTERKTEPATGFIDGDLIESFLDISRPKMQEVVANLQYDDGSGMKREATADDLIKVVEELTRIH
Primary antibody (human GSPT1, Sigma HPA052488) was diluted in blocking buffer (dil.1/300, 35 μl/well) and incubated with the cells overnight at 4° C. After three PBS washes, Alexa-fluor 488 coupled secondary antibodies (Invitrogen, A32731, dil.1/1000), Alexa-fluor 647-Phalloidin (Invitrogen, A22287, dil.1/200) and DAPI (Thermo, #62248, dil.1/1000) were diluted in blocking buffer and incubated with the samples for 2 hours at room temperature. After three final PBS washes, samples were conserved in 100 μl PBS in the dark, until measurement. Image acquisition was performed on the Operetta High-Content Imager (Perkin-Elmer). Fluorescence intensity of Alexa-Fluor 488 (GSPT1), Alexa-Fluor 647 (Actin) and DAPI (Nucleus) were measured. For the determination of GSPT1 DC50 values, a custom algorithm implemented in the PerkinElmer image analysis software Harmony-Acapella® was developed. After user-defined setting of adjustment parameters, the analysis was run identically without human intervention for all image fields. DAPI staining of the nuclei was used to determine the location of cells using standard nuclei detection modules. Segmentation artifacts were removed by threshold-based filters for area, roundness and intensity. The outline of the cells was determined analogously from the sum of the normalized, smoothed DAPI and Actin channel, starting from each nucleus. The Alexa-Fluor 488 (GSPT1) signal intensity in each cell was finally measured, in order to obtain a Mean intensity per cell. GSPT1 degradation (DC50) was calculated after normalization to controls and data import in CDD vault Database, using non-linear regression.
As for `Cc1c(CN2CCOCC2)cc(NC(=O)OCc2ccc3c(c2)C(=O)N(C2CCC(=O)NC2=O)C3)cc1OC(F)(F)F` (stereo not shown) [Compound 34], the DC50 is < 30 nM.

Regarding `O=C1CCC(N2Cc3ccc(COC(=O)NC4CCN(c5ccccn5)CC4)cc3C2=O)C(=O)N1` (stereo not shown) [Compound 35], the DC50 was > 300 nM.

In the case of `O=C1CCC(N2Cc3ccc(COC(=O)N4CCN(c5ccccc5)CC4)cc3C2=O)C(=O)N1` (stereo not shown) [Compound 36], the half-maximal degradation concentration (DC50) is > 300 nM.

Regarding `COc1cc(NC(=O)OCc2ccc3c(c2)C(=O)N(C2CCC(=O)NC2=O)C3)ccc1C` (stereo not shown) [Compound 37], the DC50 lay in the range of 30 to 300 nM.

Regarding `COc1cc(Cl)ccc1NC(=O)OCc1ccc2c(c1)C(=O)N(C1CCC(=O)NC1=O)C2` (stereo not shown) [Compound 38], the DC50 was > 300 nM.

Take `O=C1CCC(N2Cc3ccc(COC(=O)Nc4ccc(C5CC5)cc4)cc3C2=O)C(=O)N1` (stereo not shown) [Compound 39]: the half-maximal degradation concentration (DC50) is < 30 nM.

For `CN1CCC(COc2cc(Cl)cc(NC(=O)OCc3ccc4c(c3)C(=O)N(C3CCC(=O)NC3=O)C4)c2)C1` (stereo not shown) [Compound 40], the DC50 fell in the range of 30 to 300 nM.

With `Cc1c(F)cc(NC(=O)OCc2ccc3c(c2)C(=O)N(C2CCC(=O)NC2=O)C3)cc1CN1CCOCC1` (stereo not shown) [Compound 41], the DC50 is < 30 nM.

In the case of `Cc1c(Cl)cc(NC(=O)OCc2ccc3c(c2)C(=O)N(C2CCC(=O)NC2=O)C3)cc1OC1CCNC1` (stereo not shown) [Compound 44], the DC50 is 30 to 300 nM.

As to `CCc1cc(NC(=O)OCc2ccc3c(c2)C(=O)N(C2CCC(=O)NC2=O)C3)cc(Cl)c1C` (stereo not shown) [Compound 45], the DC50 was in the range of 30 to 300 nM.

Turning to `CN1CCC(Oc2cc(Cl)cc(NC(=O)OCc3ccc4c(c3)C(=O)N(C3CCC(=O)NC3=O)C4)c2)C1` (stereo not shown) [Compound 46], the DC50 is < 30 nM.

On to `O=C1CCC(N2Cc3ccc(COC(=O)Nc4ccc(-c5ccccn5)cc4)cc3C2=O)C(=O)N1` (stereo not shown) [Compound 50], for which the DC50 is < 30 nM.

On to `COc1cc(NC(=O)OCc2ccc3c(c2)C(=O)N(C2CCC(=O)NC2=O)C3)cnc1C` (stereo not shown) [Compound 51], for which the DC50 was in the range of 30 to 300 nM.

Consider `Cc1c(Cl)cc(NC(=O)OCc2ccc3c(c2)C(=O)N(C2CCC(=O)NC2=O)C3)cc1OCC1CCNC1` (stereo not shown) [Compound 52], for which the DC50 is > 300 nM.

As for `O=C1CCC(N2Cc3ccc(COC(=O)Nc4cnc5c(c4)CCC5)cc3C2=O)C(=O)N1` (stereo not shown) [Compound 53], the DC50 was in the range of 30 to 300 nM.

In the case of `O=C1CCC(N2Cc3ccc(COC(=O)Nc4cnc5c(c4)COCC5)cc3C2=O)C(=O)N1` (stereo not shown) [Compound 54], the DC50 was > 300 nM.

Turning to `CCc1cc(NC(=O)OCc2ccc3c(c2)C(=O)N(C2CCC(=O)NC2=O)C3)cnc1C` (stereo not shown) [Compound 55], the DC50 was < 30 nM.

Still in this assay, the particulars now being: GSPT1 degradation, read-out: DC50 value.
Regarding `Cc1c(CN2CCOCC2)cc(NC(=O)OCc2ccc3c(c2)C(=O)N(C2CCC(=O)NC2=O)C3)cc1OC(F)(F)F` (stereo not shown) [Compound 34], the 50% degradation concentration (DC50) was ≤ 30 nM.

For the molecule `O=C1CCC(N2Cc3ccc(COC(=O)Nc4ccc(C5CC5)cc4)cc3C2=O)C(=O)N1` (stereo not shown) [Compound 39], the DC50 is ≤ 30 nM.

`Cc1c(F)cc(NC(=O)OCc2ccc3c(c2)C(=O)N(C2CCC(=O)NC2=O)C3)cc1CN1CCOCC1` (stereo not shown) [Compound 41]: the DC50 was ≤ 30 nM.

As to `CN1CCC(Oc2cc(Cl)cc(NC(=O)OCc3ccc4c(c3)C(=O)N(C3CCC(=O)NC3=O)C4)c2)C1` (stereo not shown) [Compound 46], the DC50 is ≤ 30 nM.

For the molecule `O=C1CCC(N2Cc3ccc(COC(=O)Nc4ccc(-c5ccccn5)cc4)cc3C2=O)C(=O)N1` (stereo not shown) [Compound 50], the DC50 was ≤ 30 nM.

For `CCc1cc(NC(=O)OCc2ccc3c(c2)C(=O)N(C2CCC(=O)NC2=O)C3)cnc1C` (stereo not shown) [Compound 55], the DC50 was ≤ 30 nM.

Another assay addresses Full length wild-type cereblon CRBN (Homo sapiens (Human), UniProt Q96SW2). Nature of the assay: fluorescence polarization (FP) assay, cereblon binding. The note with it: read-out: IC50 value. The source says:
Compound activity was monitored in a fluorescence polarization (FP) homogeneous assay using 1-[5-({2-[2-(2-{[2-(2,6-dioxopiperidin-3-yl)-1,3-dioxo-2,3-dihydro-1H-isoindol-4-yl]oxy}acetamido)ethoxy]ethyl}carbamoyl)pentyl]-3,3-dimethyl-2-[(1E,3E)-5-[(2E)-1,3,3-trimethyl-5-sulfo-2,3-dihydro-1H-indol-2-ylidene]penta-1,3-dien-1-yl]-3H-indol-1-ium-5-sulfonate as a fluorescent probe. Unless otherwise stated, all reagents were purchased from Sigma Aldrich. […] Full length wild-type cereblon CRBN (80.0 nM, 10 μL) was incubated in assay buffer containing 20 mM HEPES (pH 8.0), […], 0.5 mM TCEP and 0.05% Tween 20 in the presence or absence of compound (300 nL). Inhibitors were stored as 10 mM DMSO stocks in an inert environment (low humidity, dark, low oxygen, room temperature) using the Storage Pod System. […] Following incubation at room temperature for 30 min, the assay was initiated by dispensing the probe to a final concentration of 5 nM (2.5 nL of a 20 μM stock) using the Echo ESXX. […] The FP signal was subsequently normalized to the no-compound control (i.e., DMSO). Analysis and IC50 values were derived using Dotmatics (Dotmatics UK) software.
Turning to `COc1cc(Cl)ccc1NC(=O)OCc1ccc2c(c1)C(=O)N(C1CCC(=O)NC1=O)C2` (stereo not shown) [Compound 38], the IC50 is < 1100 nM.

As to `O=C1CCC(N2Cc3ccc(COC(=O)Nc4ccc(C5CC5)cc4)cc3C2=O)C(=O)N1` (stereo not shown) [Compound 39], the IC50 is < 1100 nM.

With `Cc1c(F)cc(NC(=O)OCc2ccc3c(c2)C(=O)N(C2CCC(=O)NC2=O)C3)cc1CN1CCOCC1` (stereo not shown) [Compound 41], the IC50 was < 1100 nM.

In the case of `Cc1c(Cl)cc(NC(=O)OCc2ccc3c(c2)C(=O)N(C2CCC(=O)NC2=O)C3)cc1OC1CCNC1` (stereo not shown) [Compound 44], the IC50 is < 1100 nM.

For `COc1cc(NC(=O)OCc2ccc3c(c2)C(=O)N(C2CCC(=O)NC2=O)C3)cnc1C` (stereo not shown) [Compound 51], the IC50 is < 1100 nM.

In the case of `Cc1c(Cl)cc(NC(=O)OCc2ccc3c(c2)C(=O)N(C2CCC(=O)NC2=O)C3)cc1OCC1CCNC1` (stereo not shown) [Compound 52], the half-maximal inhibitory concentration (IC50) is < 1100 nM.

As to `O=C1CCC(N2Cc3ccc(COC(=O)Nc4cnc5c(c4)CCC5)cc3C2=O)C(=O)N1` (stereo not shown) [Compound 53], the IC50 is < 1100 nM.

For `CCc1cc(NC(=O)OCc2ccc3c(c2)C(=O)N(C2CCC(=O)NC2=O)C3)cnc1C` (stereo not shown) [Compound 55], the IC50 was < 1100 nM.

The assay is the same for the next values; noted with them: read-out: rFP IC50.
For `Cc1c(CN2CCOCC2)cc(NC(=O)OCc2ccc3c(c2)C(=O)N(C2CCC(=O)NC2=O)C3)cc1OC(F)(F)F` (stereo not shown) [Compound 34], the half-inhibitory concentration (IC50) was > 1700 nM.

Take `O=C1CCC(N2Cc3ccc(COC(=O)NC4CCN(c5ccccn5)CC4)cc3C2=O)C(=O)N1` (stereo not shown) [Compound 35]: the IC50 was < 500 nM.

Consider `O=C1CCC(N2Cc3ccc(COC(=O)N4CCN(c5ccccc5)CC4)cc3C2=O)C(=O)N1` (stereo not shown) [Compound 36], for which the IC50 is < 500 nM.

Turning to `COc1cc(NC(=O)OCc2ccc3c(c2)C(=O)N(C2CCC(=O)NC2=O)C3)ccc1C` (stereo not shown) [Compound 37], the IC50 was > 1700 nM.

For `CN1CCC(COc2cc(Cl)cc(NC(=O)OCc3ccc4c(c3)C(=O)N(C3CCC(=O)NC3=O)C4)c2)C1` (stereo not shown) [Compound 40], the IC50 was < 500 nM.

In the case of `CCc1cc(NC(=O)OCc2ccc3c(c2)C(=O)N(C2CCC(=O)NC2=O)C3)cc(Cl)c1C` (stereo not shown) [Compound 45], the IC50 is > 1700 nM.

For `CN1CCC(Oc2cc(Cl)cc(NC(=O)OCc3ccc4c(c3)C(=O)N(C3CCC(=O)NC3=O)C4)c2)C1` (stereo not shown) [Compound 46], the IC50 is < 500 nM.

In the case of `O=C1CCC(N2Cc3ccc(COC(=O)Nc4ccc(-c5ccccn5)cc4)cc3C2=O)C(=O)N1` (stereo not shown) [Compound 50], the IC50 was > 1700 nM.

`O=C1CCC(N2Cc3ccc(COC(=O)Nc4cnc5c(c4)COCC5)cc3C2=O)C(=O)N1` (stereo not shown) [Compound 54]: the IC50 is < 500 nM.
